Laboratory results: patent US20060073220A1, “Cinnamon extract enriched for polyphenols and methods of preparing same” (priority 2004, published 2006)
In brackets after ≈: the same amount, converted by molar mass.

What was measured:
HSV-2 = assay: antiviral assay, HSV-2; type: cell-based, Herpes simplex virus 2; conditions: positive control, HHF cells
HSV-1 = assay: antiviral assay, HSV-1; type: cell-based, Herpes simplex virus 1; conditions: positive control, HHF cells
Influenza A = Influenza A assay (strain not stated for the control); type: cell-based, influenza A virus
West Nile Virus = assay: antiviral assay, West Nile Virus; type: cell-based; conditions: positive control, Vero cells
[1] = test system: RSV (respiratory syncytial virus); assay: RSV (respiratory syncytial virus) assay; type: cell-based
Rhinovirus Type 2 = assay: antiviral assay, Rhinovirus Type 2; type: cell-based
Adenovirus Type 1 = assay: antiviral assay, Adenovirus Type 1; type: cell-based
Influenza B = assay: antiviral assay, Influenza B; type: cell-based; conditions: positive control, MDCK cells
Punta Toro A = assay: antiviral assay, Punta Toro A; type: cell-based, Punta Toro A virus
[2] = test system: PIV (parainfluenza virus); assay: PIV (parainfluenza virus) assay; type: cell-based

SMILES	ED50 HSV2 assay (HSV-2) [mg/L]	ED50 HSV1 assay (HSV-1) [mg/L]	ED50 Influenza A assay (Influenza A) [mg/L]	ED50 West Nile viral assay (West Nile Virus) [mg/L]	ED50 RSV assay [1] [mg/L]	ED50 Rhinovirus assay (Rhinovirus Type 2) [mg/L]	ED50 Adenovirus type 1 assay (Adenovirus Type 1) [mg/L]	ED50 Influenza B assay (Influenza B) [mg/L]	ED50 Punta Toro A assay (Punta Toro A) [mg/L]	ED50 PVI (parainfluenza virus) assay [2] [mg/L]
Nc1nc2c(ncn2COCCO)c(=O)[nH]1 [acyclovir]	1 to 2	1 to 2	–	–	–	–	–	–	–	–
NC(=O)c1ncn([C@@H]2O[C@H](CO)[C@@H](O)[C@H]2O)n1 [ribivarin]	–	–	2 to 3	20 (≈ 81.9 µM)	20 (≈ 81.9 µM)	< 1	10 (≈ 40.9 µM)	2 to 3	20 (≈ 81.9 µM)	20 (≈ 81.9 µM)
